Columns and labels:
Settings in all cases: phage-displayed peptide; equimolar mix, i.v. 1 × 10^10 pfu/mouse, 2 h circulation, perfusion; Ion-Torrent sequencing; mean, N = 3 mice
[1] = test system: PC3; test: In vivo play-off phage auditioning, PC3 tumor; parameters: species or system prostate carcinoma in athymic nude mice
Protocol: (§1) Athymic nude mice (Hsd/Athymic Fox1 nu Harlan) were purchased from Envigo (Netherlands) and maintained under standard housing conditions of the Animal Facility of the Institute of Biomedicine and Translational Medicine, University of Tartu (Tartu, Estonia). For orthotropic GBM tumor models, we used NCH421K, P13, and P3 stem cell-like, WT-GBM cells. The individual GBM cells around 2–3 × 10^5 in 3 μL PBS were intracranially implanted into mice brain 2 mm right and 1 mm anterior to the bregma. U87-MG and PC3 subcutaneous models were induced by injecting 2–9 × 10^6 cells in 100 µl PBS subcutaneously into the right flank of 11–15 week old male and female nude mice. All animal experiments were performed in accordance with the procedures approved by the Committee of Animal Experimentation of Estonian Ministry of Agriculture, permits #42 and #48.
(§2) In vivo play-off was used for internally controlled and competitive systemic phage homing studies in mice bearing tumor xenografts. Phages displaying the candidate TNC-C binding peptides and control peptides were individually amplified and purified by precipitation with PEG-8000 (Sigma-Aldrich, St. Louis, MO, USA), followed by […] gradient ultracentrifugation and dialysis. The phages were pooled at equimolar representation (Table 1 for details) and injected iv at 1 × 10^10 pfu (in 200 µl PBS) in tumor-bearing mice, circulated for 2 h, followed by anesthesia and intracardial perfusion with DMEM. The tumors and organs were collected in lysogeny broth (LB) medium containing 1% NP40, and the tissues were homogenized using a hand-held homogenizer. Phages in the tissue lysate were amplified in E.coli, purified by precipitation with PEG-8000, and DNA was extracted using a DNA extraction kit (High Pure PCR Template Preparation Kit; Roche, Basel, Switzerland). Next-generation sequencing of phage genomic DNA with Ion Torrent system (Thermo Fisher Scientific, Waltham, MA, USA) was used to evaluate the representation of each peptide-phage in the input mixture, in tumors and control organs. The FASTQ data from Ion Torrent were processed using a custom python script that identified the barcodes, constant flanking residues, and extracted the reads of the correct length.

[2] = test system: P3 SCL; test: In vivo play-off phage auditioning, P3 SCL tumor; parameters: species or system P3 stem cell-like glioblastoma in athymic nude mice
Protocol: as §1, §2

[3] = test system: Norm. brain; test: In vivo play-off phage auditioning, normal brain; parameters: species or system athymic nude mice
Protocol: as §2

[4] = test system: P13; test: In vivo play-off phage auditioning, P13 tumor; parameters: species or system P13 glioblastoma in athymic nude mice
Protocol: as §1, §2

[5] = test system: WT-GBM; test: In vivo play-off phage auditioning, WT-GBM tumor; parameters: species or system murine WT-GBM glioblastoma in athymic nude mice
Protocol: as §1, §2

[6] = test system: U87-MG; test: In vivo play-off phage auditioning, U87-MG tumor; parameters: species or system human glioblastoma in athymic nude mice
Protocol: as §1, §2

Sequence | Representation of phage in tumors, PC3 [1] [fold G7 control phage] | Representation of phage in tumors, P3 SCL [2] [fold G7 control phage] | Representation of phage in control brain tissue (Norm. brain) [3] [fold G7 control phage] | Representation of phage in tumors, P13 [4] [fold G7 control phage] | Representation of phage in tumors, WT-GBM [5] [fold G7 control phage] | Representation of phage in tumors, U87-MG [6] [fold G7 control phage]
CAGRGRLVRC [Modified clone-5] | 0.4 | 0.2 | 0.0 | 0.4 | 0.9 | 0.1
GGGGGGG [heptaglycine control phage, reference compound] | 1.0 | 1.0 | 1 | 1.0 | 1.0 | 1.0
AVRGRLRVAKLAAALE [Clone-3] | 1.0 | 0.6 | 0.1 | 0.6 | 1.3 | 0.8
RGRLVRAK [Modified clone-5] | 3.0 | 0.3 | 0.2 | 0.1 | 23.8 | 0.5

Source: article PMC7118115, “Tumor-penetrating peptide for systemic targeting of Tenascin-C” (Scientific Reports, 2020)
